The values that follow come from US8889714B2, “3,4-substituted piperidine derivatives as renin inhibitors” (Actelion Pharmaceuticals Ltd., priority 2008, dated 2014).

Read-outs that look alike come from different tables or passages of the source.

The target of assay [1] is T1, Human recombinant renin (Homo sapiens, UniProt P00797).
T1 construct: purchased Proteos
T1 sequence (P00797 67-406): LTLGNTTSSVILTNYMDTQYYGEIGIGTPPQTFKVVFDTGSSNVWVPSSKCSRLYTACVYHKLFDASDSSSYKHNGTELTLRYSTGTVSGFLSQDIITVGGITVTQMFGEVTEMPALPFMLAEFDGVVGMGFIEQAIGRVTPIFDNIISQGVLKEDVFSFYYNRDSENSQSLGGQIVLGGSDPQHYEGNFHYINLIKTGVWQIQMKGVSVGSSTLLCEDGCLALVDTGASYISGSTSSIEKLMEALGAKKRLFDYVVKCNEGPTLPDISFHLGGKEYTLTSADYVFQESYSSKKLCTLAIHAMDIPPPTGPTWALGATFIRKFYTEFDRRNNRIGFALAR
The assay can be described thus: Inhibition of human recombinant renin (buffer). Type of assay: biochemical. Particulars: 100 pM renin, 50 mM MOPS pH 7.4, 37° C., 3 hours. The protocol: Fluorescence is measured at times 0 and 3 hours with a SpectraMax Gemini EM reader set at an excitation wavelength of 328 nm and at an emission wavelength of 388 nm. Background fluorescence at t=0 is subtracted from the measurement at t=3 hours. Inhibitory activity of the compounds is expressed as IC50.

The target of assay [2] is T2, recombinant renin in human plasma (Homo sapiens, UniProt P00797).
T2 construct: purchased Proteos
T2 sequence (P00797 67-406): T1 sequence (P00797 67-406)
Briefly: Inhibition of renin in human plasma. Conditions: human EDTA plasma, 1 nM recombinant renin added, 37° C., 1 hour. Type of assay: biochemical. How it is done: Human EDTA-collected plasma is rapidly thawed in warm water and centrifuged at 2900 g for 15 minutes at 4° C. The supernatant is collected and recombinant renin (Proteos) is added at a final concentration of 1 nM. […] The plate is incubated at 37° C. for 1 hour. […] Background fluorescence at t=0 is subtracted from the measurement at t=1 hour. Inhibitory activity of the compounds is expressed as IC50.

Where [3] appears, read: read-out: Human Renin IC50 (buffer).
The mark [4] stands for this setting: read-out: Human Renin IC50 (plasma).

Consider `COCCCc1cc(Cl)c(Cl)c(CN(C(=O)[C@@H]2CNCC[C@H]2c2ccn(C)c(=O)c2)C2CC2)c1` (relative stereo) [Example 5, trans-N-Cyclopropyl-N-({2,3-dichloro-5-[3-(methyloxy)propyl]phenyl}methyl)-4-(1-methyl-2-oxo-1,2-dihydro-4-pyridinyl)-3-piperidinecarboxamide], for which the IC50 in assay [1] (setting [3]) is 0.3 nM; in assay [2] (setting [4]), 1.3 nM.
In the same order, the values of `COCCCn1cc(CN(C(=O)[C@@H]2CNCC[C@H]2c2ccn(C)c(=O)c2)C2CC2)c(=O)n(CCCOC)c1=O` (relative stereo) [Example 79, trans-N-({1,3-Bis[3-(methyloxy)propyl]-2,4-dioxo-1,2,3,4-tetrahydro-5-pyrimidinyl}methyl)-N-cyclopropyl-4-(1-methyl-2-oxo-1,2-dihydro-4-pyridinyl)-3-piperidinecarboxamide] are 58 nM and 75 nM.
In the same order, the values of `COCCCn1cc(CN(C(=O)[C@@H]2CNCC[C@H]2c2ccn(C)c(=O)c2)C2CC2)c2c(F)cccc21` (relative stereo) [Example 69, trans-N-Cyclopropyl-N-({4-fluoro-1-[3-(methyloxy)propyl]-1H-indol-3-yl}methyl)-4-(1-methyl-2-oxo-1,2-dihydro-4-pyridinyl)-3-piperidinecarboxamide] are 0.3 nM and 0.9 nM.
The corresponding values for `Cn1ccc([C@@H]2CCNC[C@H]2C(=O)N(Cc2cn(Cc3ccncc3)c3cccc(F)c23)C2CC2)cc1=O` (relative stereo) [Example 77, trans-N-Cyclopropyl-N-{[4-fluoro-1-(4-pyridinylmethyl)-1H-indol-3-yl]methyl}-4-(1-methyl-2-oxo-1,2-dihydro-4-pyridinyl)-3-piperidinecarboxamide] are 0.2 nM and 0.5 nM.
With `Cn1ccc([C@@H]2CCNC[C@H]2C(=O)N(Cc2cn(Cc3cccc(F)c3)c3cccc(Br)c23)C2CC2)cc1=O` (relative stereo) [Example 73, trans-N-({4-Bromo-1-[(3-fluorophenyl)methyl]-1H-indol-3-yl}methyl)-N-cyclopropyl-4-(1-methyl-2-oxo-1,2-dihydro-4-pyridinyl)-3-piperidinecarboxamide], the IC50 in assay [1] (setting [3]) is < 0.06 nM; in assay [2] (setting [4]), 0.5 nM.
The corresponding values for `COCCCc1cc(CN(C(=O)[C@@H]2CNCC[C@H]2c2ccn(C)c(=O)c2)C2CC2)c2ccccc2n1` (relative stereo) [Example 25, trans-N-Cyclopropyl-4-(1-methyl-2-oxo-1,2-dihydro-4-pyridinyl)-N-({2-[3-(methyloxy)propyl]-4-quinolinyl}methyl)-3-piperidinecarboxamide] are 1.4 nM and 3 nM.
Take `COCCCc1cc(CN(C(=O)[C@H]2CNCC[C@@H]2c2ccn(C)c(=O)c2)C2CC2)cc(Br)c1C` (relative stereo) [Example 85, trans-N-({3-Bromo-4-methyl-5-[3-(methyloxy)propyl]phenyl}methyl)-N-cyclopropyl-4-(1-methyl-2-oxo-1,2-dihydro-4-pyridinyl)-3-piperidinecarboxamide]: the IC50 in assay [1] (setting [3]) is 0.9 nM; in assay [2] (setting [4]), 1.3 nM.
As to `CCn1ccc([C@@H]2CCNC[C@H]2C(=O)N(Cc2cc(CCCOC)cc(OCCOC)c2)C2CC2)cc1=O` (relative stereo) [Example 12, trans-N-Cyclopropyl-4-(1-ethyl-2-oxo-1,2-dihydro-4-pyridinyl)-N-({3-{[2-(methyloxy)ethyl]oxy}-5-[3-(methyloxy)propyl]phenyl}methyl)-3-piperidinecarboxamide], the IC50 in assay [1] (setting [3]) turned out to be 200 nM; in assay [2] (setting [4]), 460 nM.
In the same order, the values of `COCCc1ccc(Cl)c(CN(C(=O)[C@H]2CNCC[C@]2(OC)c2ccn(C)c(=O)c2)C2CC2)c1` (relative stereo) [Example 109] are 1.3 nM and 3.2 nM.
The corresponding values for `Cc1cc(Cc2ccccc2)cc(CN(C(=O)[C@@H]2CNCC[C@H]2c2ccn(C)c(=O)c2)C2CC2)c1` (relative stereo) [Example 104, trans-N-(3-Benzyl-5-methylbenzyl)-N-cyclopropyl-4-(1-methyl-2-oxo-1,2-dihydro-4-pyridinyl)-3-piperidinecarboxamide] are 7.5 nM and 21 nM.
In the same order, the values of `COCCCc1cc(CCCOC)c(Cl)c(CN(C(=O)[C@H]2CNCC[C@@H]2c2ccn(C)c(=O)c2)C2CC2)c1` (relative stereo) [Example 89, trans-N-[2-Chloro-3,5-bis(3-methoxypropyl)benzyl]-N-cyclopropyl-4-(1-methyl-2-oxo-1,2-dihydro-4-pyridinyl)-3-piperidinecarboxamide] are 0.2 nM and 0.5 nM.
Regarding `COCCCc1ccc(SC)c(CN(C(=O)[C@H]2CNCC[C@@H]2c2ccn(C)c(=O)c2)C2CC2)c1` (relative stereo) [Example 84, trans-N-Cyclopropyl-4-(1-methyl-2-oxo-1,2-dihydro-4-pyridinyl)-N-{[5-[3-(methyloxy)propyl]-2-(methylthio)phenyl]methyl}-3-piperidinecarboxamide], the IC50 in assay [1] (setting [3]) turned out to be 4.7 nM; in assay [2] (setting [4]), 12.3 nM.
In the same order, the values of `Cn1ccc(C2CCNC[C@@H]2C(=O)N(Cc2cc(CCC#N)cc(Cl)c2Cl)C2CC2)cc1=O` (stereo in doubt) [Example 30, trans-N-Cyclopropyl-N-{[2,3-dichloro-5-(2-cyanoethyl)phenyl]methyl}-4-(1-methyl-2-oxo-1,2-dihydro-4-pyridinyl)-3-piperidinecarboxamide] are 8.4 nM and 17 nM.
The corresponding values for `Cc1c(Br)cc(CN(C(=O)[C@@H]2CNCC[C@H]2c2ccn(C)c(=O)c2)C2CC2)cc1CCCOC(F)F` (relative stereo) [Example 103, trans-N-{3-Bromo-5-[3-(difluoromethoxy)propyl]-4-methylbenzyl}-N-cyclopropyl-4-(1-methyl-2-oxo-1,2-dihydro-4-pyridinyl)-3-piperidinecarboxamide] are 0.3 nM and 1.4 nM.
As for `COCCCc1cc(CN(C(=O)[C@@H]2CNCC[C@H]2c2ccn(C)c(=O)c2)C2CC2)cc(-c2ccccc2)c1` (relative stereo) [Example 33, trans-N-Cyclopropyl-4-(1-methyl-2-oxo-1,2-dihydro-4-pyridinyl)-N-({5-[3-(methyloxy)propyl]-3-biphenylyl}methyl)-3-piperidinecarboxamide], the IC50 in assay [1] (setting [3]) was determined as 15 nM; in assay [2] (setting [4]), 81 nM.
In the same order, the values of `COCCCc1cc(CN(C(=O)[C@@H]2CNCC[C@H]2c2ccn(C)c(=O)c2)C2CC2)c2ccccc2c1` (relative stereo) [Example 18, trans-N-Cyclopropyl-4-(1-methyl-2-oxo-1,2-dihydro-4-pyridinyl)-N-({3-[3-(methyloxy)propyl]-1-naphthalenyl}methyl)-3-piperidinecarboxamide] are 0.4 nM and 1.8 nM.
Consider `COCCNc1cc(CN(C(=O)[C@@H]2CNCC[C@H]2c2ccn(C)c(=O)c2)C2CC2)c2ccccc2c1` (relative stereo) [Example 36, trans-N-Cyclopropyl-4-(1-methyl-2-oxo-1,2-dihydro-4-pyridinyl)-N-[(3-{[2-(methyloxy)ethyl]amino}-1-naphthalenyl)methyl]-3-piperidinecarboxamide], for which the IC50 in assay [1] (Human Renin IC50 (buffer)) was determined as 5.3 nM; in assay [2] (Human Renin IC50 (plasma)) it was 2.4 nM.
On to `Cn1ccc([C@@H]2CCNC[C@H]2C(=O)N(Cc2cn(Cc3cccc(F)c3)c3cccc(F)c23)C2CC2)cc1=O` (relative stereo) [Example 68, trans-N-Cyclopropyl-N-({4-fluoro-1-[(3-fluorophenyl)methyl]-1H-indol-3-yl]methyl}-4-(1-methyl-2-oxo-1,2-dihydro-4-pyridinyl)-3-piperidinecarboxamide], for which the IC50 in assay [1] (setting [3]) worked out at 0.06 nM; in assay [2] (setting [4]), 0.6 nM.
The corresponding values for `COCCCc1ccc2c(c1)C(N(C(=O)[C@H]1CNCCC1c1ccn(C)c(=O)c1)C1CC1)CCC2` (single isomer, unassigned) [Example 100 Diastereomer A, trans-N-Cyclopropyl-N-[7-(3-methoxypropyl)-1,2,3,4-tetrahydro-1-naphthalenyl]-4-(1-methyl-2-oxo-1,2-dihydro-4-pyridinyl)-3-piperidinecarboxamide] are 0.3 nM and 1.2 nM.
The corresponding values for `COCCCc1ccc2c(c1)C(N(C(=O)[C@H]1CNCCC1c1ccn(C)c(=O)c1)C1CC1)CCC2` (single isomer, unassigned) [Example 100 Diastereomer B, trans-N-Cyclopropyl-N-[7-(3-methoxypropyl)-1,2,3,4-tetrahydro-1-naphthalenyl]-4-(1-methyl-2-oxo-1,2-dihydro-4-pyridinyl)-3-piperidinecarboxamide] are 3.6 nM and 16.2 nM.

By IC50 is commonly meant the concentration that gives 50% inhibition.
